Type in all cases: physicochemical
Series [1] is described as follows: Thermogravimetric (TGA) analysis. To be noted: TGA 20° C. to 350° C., 10° C./min, nitrogen. As to the method: Thermogravimetric (TGA) analysis was performed on the tromethamine salt prepared in Example 3, the free base prepared in Comparative Example 1, the L-arginine salt prepared in Comparative Example 2, the meglumine salt prepared in Comparative Example 3, and the potassium salt prepared in Comparative Example 4. Thermogravimetric analysis was performed from 20° C. to 350° C. at a heating rate of 10° C./min under nitrogen conditions using TGA Q50 manufactured by TA Instruments, Inc. The weight loss at about 170° C. or less for each salt was measured, and results thereof are shown in FIG. 2 (tromethamine salt), FIG. 3 (free base), FIG. 6 (L-arginine salt), FIG. 9 (meglumine salt), and 12 (potassium salt), and summarized in Table 4 below.

Series [2] can be described thus: Hygroscopicity test, European Pharmacopoeia conditions, 25° C. and 80% RH. The note with it: stored 24 hours at 25° C., 80% RH (EP conditions). As to the method: Under the hygroscopicity test conditions of the European Pharmacopoeia (EP), the tromethamine salt prepared in Example 3 and the free base prepared in Comparative Example 1 were stored for 24 hours at a temperature of 25° C. and a relative humidity of 80%, and then the mass change of the sample due to moisture sorption was measured.

Series [3] is described as follows: Solubility in water and bio-relevant media. To be noted: for Final pH: after 24 hours stirring; for solubility at 24 h: thermodynamic from solid, room temperature, 2 mg/mL loading. On the procedure:
Solubility in water and bio-relevant media, i.e., stimulated gastric fluid (SGF), fasted state simulated intestinal fluid (FaSSIF), and fed state simulated intestinal fluid (FeSSIF) of the free base and the tromethamine salt of (S)-2-((4-(6-((5-cyanopyridin-2-yl)methoxy)pyridin-2-yl)piperazin-1-yl)methyl)-1-(oxetan-2-ylmethyl)-1H-benzo[d]imidazol-6-carboxylic acid was confirmed.
Buffers for the bio-relevant media were prepared as follows.
Water: Laboratory Milli-Q purified water.
SGF (Stimulated Gastric Fluid): 2.0 g of sodium chloride and 7 mL of hydrochloric acid dissolved in 1000 mL of water was used.
FaSSIF (Fasted State Simulated Intestinal Fluid): A commercial product purchased from Bio-Relevant Company and manufactured according to instructions was used.
FeSSIF (Fed State Simulated Intestinal Fluid): A commercial product purchased from Bio-Relevant Company and prepared according to instructions was used.
For the experiment, about 2 mg of compound (2 mg as free base form) was weighed into each glass vial and then 1 mL of medium was added (final concentration of 2 mg/mL). Then, the sample was continuously stirred for 24 hours in a magnetic stirrer at a speed of […] at room temperature. Then, the pH was measured and the mixture was filtered using MultiScreen®HTS-HV 96-well plate (Merck; 0.45 μm hydrophilic low protein binding Durapore® membrane). Solubility was analyzed using HPLC.

Series [4] in a line: Drug stability evaluation under stress condition (80° C., open). As to the method:
The free base and the tromethamine salt of (S)-2-((4-(6-((5-cyanopyridin-2-yl)methoxy)pyridin-2-yl)piperazin-1-yl)methyl)-1-(oxetan-2-ylmethyl)-1H-benzo[d]imidazol-6-carboxylic acid were weighed into each vial and stored under stress conditions to investigate stability.
The stress conditions are as follows: • high temperature open room condition: 80° C.;
Samples were analyzed by XRPD and HPLC at the onset (Day 0) and week 1 of storage.

A short description of series [5]: Hygroscopicity test by DVS, 25° C. and 90% RH. The note with it: moisture sorption. As to the method:
Samples in amounts of about 5 to 25 mg were tested for moisture sorption/desorption profiles at 25° C. under a 0% to 90% relative humidity (RH) cycle according to the pa-rameters in Table 2 below using DVS Intrinsic 1 manufactured by Surface Measurement System Ltd.
Hygroscopicity was measured for the tromethamine salt prepared in Example 3, the L-arginine salt prepared in Comparative Example 2, the meglumine salt prepared in Comparative Example 3, and the potassium salt prepared in Comparative Example 4. Results thereof are shown in FIGS. 14 to 17, respectively, and the results of the weight percent gain according to moisture sorption are shown in Table 6 below.

A short description of series [6]: XRPD analysis of crystal form under various relative humidity conditions. The note with it: 20° C. On the procedure: The X-ray powder diffraction (XRPD) pattern was measured using DYY884-AERIS-300 manufactured by PANalytical company, and analyzed with a step size of about 0.02° over the range of about 2° to 45° in the […].
The XRPD analysis of the crystalline form 1 of the tromethamine salt of (S)-2-((4-(6-((5-cyanopyridin-2-yl)methoxy)pyridin-2-yl)piperazin-1-yl)methyl)-1-(oxetan-2-ylmethyl)-1H-benzo[d]imidazol-6-carboxylic acid was performed under the conditions of varying relative humidity from 15% RH to 90% RH at 20° C., and the changes in the crystalline form according to the relative humidity were confirmed.

Where [7] appears, read: simulated gastric fluid, SGF (pH 2.0).
Where [8] appears, read: 80° C. (Week 1), high temperature open.

This is an account of results in patent publication US20250214968A1, “Novel Salt of GLP-1 Receptor Agonist Compound, Preparation Method Thereof and Pharmaceutical Composition Comprising Thereof” (Ildong Pharmaceutical Co., Ltd., priority 2022, published 2025).

In brackets after ≈: the same amount, converted by molar mass. Counter-ions that a name gives are not always drawn. Where only a bound is given, the exact number is not on record here.

As to `N#Cc1ccc(COc2cccc(N3CCN(Cc4nc5ccc(C(=O)O)cc5n4C[C@@H]4CCO4)CC3)n2)nc1` [Comparative Example 1, (S)-2-((4-(6-((5-cyanopyridin-2-yl)methoxy)pyridin-2-yl)piperazin-1-yl)methyl)-1-(oxetan-2-ylmethyl)-1H-benzo[d]imidazol-6-carboxylic acid], in series [1], the “Weight loss (%) at about 170° C. or less” value is 3.323%. For the same compound, the “Weight percent gain (%)” value in series [2] stood at 2.7%. Further, the “Final pH” value in series [3] (FaSSIF (pH 6.5)) is recorded as 6.49; in series [3] (FeSSIF (pH 5.8)), 5.70; in series [3] (SGF (pH 2.0)), 1.74; in series [3] (Water), 6.64. For the same compound, the solubility at 24 h was 850 µg/mL (≈ 1580 µM) in series [3] (setting [7]), 160 µg/mL (≈ 297 µM) in series [3] (FaSSIF (pH 6.5)), 63 µg/mL (≈ 117 µM) in series [3] (FeSSIF (pH 5.8)) and 106 µg/mL (≈ 196 µM) in series [3] (Water). Also, the figures for the “Chemical stability by HPLC purity %” value in series [4] (setting [8]) and in series [4] (Onset (Day 0)) were 96.70% and 97.84%, respectively.

As to `N#Cc1ccc(COc2cccc(N3CCN(Cc4nc5ccc(C(=O)O)cc5n4C[C@@H]4CCO4)CC3)n2)nc1.N=C(N)NCCC[C@H](N)C(=O)O` [Comparative Example 2, L-arginine salt of (S)-2-((4-(6-((5-cyanopyridin-2-yl)methoxy)pyridin-2-yl)piperazin-1-yl)methyl)-1-(oxetan-2-ylmethyl)-1H-benzo[d]imidazol-6-carboxylic acid], the “Weight loss (%) at about 170° C. or less” value in series [1] is listed as 7.368%. In addition, the “Weight percent gain (%)” value in series [5] is 6.84%.

With `CNC[C@H](O)[C@@H](O)[C@H](O)[C@H](O)CO.N#Cc1ccc(COc2cccc(N3CCN(Cc4nc5ccc(C(=O)O)cc5n4C[C@@H]4CCO4)CC3)n2)nc1` [Comparative Example 3, meglumine salt of (S)-2-((4-(6-((5-cyanopyridin-2-yl)methoxy)pyridin-2-yl)piperazin-1-yl)methyl)-1-(oxetan-2-ylmethyl)-1H-benzo[d]imidazol-6-carboxylic acid], the “Weight loss (%) at about 170° C. or less” value in series [1] turned out to be 2.8132%. The “Weight percent gain (%)” value in series [5] is reported as 17.77%.

As for `N#Cc1ccc(COc2cccc(N3CCN(Cc4nc5ccc(C(=O)[O-])cc5n4C[C@@H]4CCO4)CC3)n2)nc1.[K+]` [Comparative Example 4, potassium salt of (S)-2-((4-(6-((5-cyanopyridin-2-yl)methoxy)pyridin-2-yl)piperazin-1-yl)methyl)-1-(oxetan-2-ylmethyl)-1H-benzo[d]imidazol-6-carboxylic acid], the “Weight loss (%) at about 170° C. or less” value in series [1] was 4.284%. In addition, the “Weight percent gain (%)” value in series [5] is on record as 5.97%.

`N#Cc1ccc(COc2cccc(N3CCN(Cc4nc5ccc(C(=O)O)cc5n4C[C@@H]4CCO4)CC3)n2)nc1` [Example 3, tromethamine salt of (S)-2-((4-(6-((5-cyanopyridin-2-yl)methoxy)pyridin-2-yl)piperazin-1-yl)methyl)-1-(oxetan-2-ylmethyl)-1H-benzo[d]imidazol-6-carboxylic acid]: the “Weight loss (%) at about 170° C. or less” value in series [1] is recorded as 0.1207%. In addition, the “Weight percent gain (%)” value is on record as 1.44% in series [5], “about 1.44%” in series [5] (listed as tromethamine salt) and 0.22% in series [2]. Further, the “Final pH” value in series [3] (FaSSIF (pH 6.5)) amounted to 6.50; in series [3] (FeSSIF (pH 5.8)), 5.85; in series [3] (SGF (pH 2.0)) it was 1.90; in series [3] (Water), 7.21. Further, the solubility at 24 h in series [3] (setting [7]) is 710 µg/mL; in series [3] (FaSSIF (pH 6.5)), > 2000 µg/mL; in series [3] (FeSSIF (pH 5.8)), 336 µg/mL; in series [3] (Water), > 2000 µg/mL. The figures for the “Chemical stability by HPLC purity %” value in series [4] (setting [8]) and in series [4] (Onset (Day 0)) were 97.32% and 97.99%, respectively. Also, the “change in the XRPD pattern” value in series [4] (harsh conditions, 80° C., week 1) is “did not show any change in the XRPD pattern”. Also, in series [4] (harsh conditions, 80° C., week 1 vs day 0), the purity change rate result is listed as “less than 1%”. The “Crystalline Form” value in series [6] (15% RH, during desorption) is recorded as “Form 1”; in series [6] (15% RH, increasing humidity), 1; in series [6] (20% RH, increasing humidity), 1; in series [6] (25% RH, increasing humidity), 1; in series [6] (30% RH, during desorption) it was “Form 1”; in series [6] (30% RH, increasing humidity), 1. Besides, the “Crystalline Form” value was 1 in series [6] (35% RH, increasing humidity); “Form 1” in series [6] (40% RH, during desorption); 1 in series [6] (40% RH, increasing humidity); 1 in series [6] (45% RH, increasing humidity); “intermediate” in series [6] (50% RH, during desorption); 1 in series [6] (50% RH, increasing humidity). In addition, the “Crystalline Form” value in series [6] (55% RH, increasing humidity) was determined as 1A; in series [6] (60% RH, increasing humidity) it was 1A.

Broadly, the solubility is how much of the substance goes into solution per volume. A higher solubility goes with much dissolved substance.
